Source: ChEMBL document CHEMBL3872253, “Synthesis and in vitro antiproliferative activity of C5-benzyl substituted 2-amino-pyrrolo[2,3-d]pyrimidines as potent Hsp90 inhibitors” (Bioorg Med Chem Lett, 2017)
pIC50: −log10 of the molar value.

Assays:
[1] = biological target: Heat shock protein HSP 90-alpha (Homo sapiens, UniProt P07900); assay: Inhibition of FITC-labeled geldanamycin binding to human Hsp90alpha by fluorescence polarization assay
[2] = Growth inhibition of human HFF1 cells at 10 uM after 72 hrs by MTT assay; assay type: cell-based, HFF-1
[3] = Growth inhibition of human HCT116 cells at 10 uM after 72 hrs by MTT assay; assay type: functional; details: HCT-116, 72 h
[4] = Growth inhibition of human SKBR3 cells at 10 uM after 72 hrs by MTT assay; assay type: functional; details: SK-BR-3, 72 h
[5] = Growth inhibition of human MCF7 cells at 10 uM after 72 hrs by MTT assay; assay type: functional; details: MCF7, 72 h
[6] = Growth inhibition of human MDA-MB-468 cells after 48 hrs by sulforhodamine B assay; assay type: functional; details: MDA-MB-468, 48 h
[7] = Cytotoxicity against human Hs 578T cells after 48 hrs by sulforhodamine B assay; assay type: functional
[8] = Cytotoxicity against human NCI-ADR-RES cells after 48 hrs by sulforhodamine B assay; assay type: functional
[9] = Cytotoxicity against human A549/ATCC cells after 48 hrs by sulforhodamine B assay; assay type: functional; details: A549, 48 h
[10] = Cytotoxicity against human SR cells after 48 hrs by sulforhodamine B assay; assay type: functional
[11] = cells; details: Homo sapiens, T47D, 48 h
Description: Cytotoxicity against human T47D cells after 48 hrs by sulforhodamine B assay

[12] = cells; details: Homo sapiens, BT-549, 48 h
Description: Cytotoxicity against human BT549 cells after 48 hrs by sulforhodamine B assay

[13] = cells; details: Homo sapiens, MDA-MB-231, 48 h
Description: Cytotoxicity against human MDA-MB-231 cells after 48 hrs by sulforhodamine B assay

[14] = cells; details: Homo sapiens, MCF7, 48 h
Description: Cytotoxicity against human MCF7 cells after 48 hrs by sulforhodamine B assay

[15] = cells; details: Homo sapiens, DU-145, 48 h
Description: Cytotoxicity against human DU145 cells after 48 hrs by sulforhodamine B assay

[16] = cells; details: Homo sapiens, PC-3, 48 h
Description: Cytotoxicity against human PC3 cells after 48 hrs by sulforhodamine B assay

[17] = cells; details: Homo sapiens, UO-31, 48 h
Description: Cytotoxicity against human UO31 cells after 48 hrs by sulforhodamine B assay

[18] = cells; details: Homo sapiens, TK-10, 48 h
Description: Cytotoxicity against human TK10 cells after 48 hrs by sulforhodamine B assay

[19] = cells; details: Homo sapiens, SN12C, 48 h
Description: Cytotoxicity against human SN12C cells after 48 hrs by sulforhodamine B assay

[20] = cells; details: Homo sapiens, RXF 393, 48 h
Description: Cytotoxicity against human RXF393 cells after 48 hrs by sulforhodamine B assay

[21] = cells; details: Homo sapiens, CAKI-1, 48 h
Description: Cytotoxicity against human Caki1 cells after 48 hrs by sulforhodamine B assay

[22] = cells; details: Homo sapiens, ACHN, 48 h
Description: Cytotoxicity against human ACHN cells after 48 hrs by sulforhodamine B assay

[23] = cells; details: Homo sapiens, A498, 48 h
Description: Cytotoxicity against human A498 cells after 48 hrs by sulforhodamine B assay

[24] = cells; details: Homo sapiens, SK-OV-3, 48 h
Description: Cytotoxicity against human SKOV3 cells after 48 hrs by sulforhodamine B assay

[25] = cells; details: Homo sapiens, 786-0, 48 h
Description: Cytotoxicity against human 786-0 cells after 48 hrs by sulforhodamine B assay

[26] = cells; details: Homo sapiens, OVCAR-8, 48 h
Description: Cytotoxicity against human OVCAR8 cells after 48 hrs by sulforhodamine B assay

[27] = cells; details: Homo sapiens, OVCAR-5, 48 h
Description: Cytotoxicity against human OVCAR5 cells after 48 hrs by sulforhodamine B assay

[28] = cells; details: Homo sapiens, OVCAR-4, 48 h
Description: Cytotoxicity against human OVCAR4 cells after 48 hrs by sulforhodamine B assay

[29] = cells; details: Homo sapiens, OVCAR-3, 48 h
Description: Cytotoxicity against human OVCAR3 cells after 48 hrs by sulforhodamine B assay

[30] = cells; details: Homo sapiens, IGROV-1, 48 h
Description: Cytotoxicity against human IGROV1 cells after 48 hrs by sulforhodamine B assay

[31] = cells; details: Homo sapiens, UACC-62, 48 h
Description: Cytotoxicity against human UACC62 cells after 48 hrs by sulforhodamine B assay

[32] = cells; details: Homo sapiens, UACC-257, 48 h
Description: Cytotoxicity against human UACC257 cells after 48 hrs by sulforhodamine B assay

[33] = cells; details: Homo sapiens, SK-MEL-28, 48 h
Description: Cytotoxicity against human SK-MEL-28 cells after 48 hrs by sulforhodamine B assay

[34] = cells; details: Homo sapiens, SK-MEL-5, 48 h
Description: Cytotoxicity against human SK-MEL-5 cells after 48 hrs by sulforhodamine B assay

[35] = cells; details: Homo sapiens, SK-MEL-2, 48 h
Description: Cytotoxicity against human SK-MEL-2 cells after 48 hrs by sulforhodamine B assay

[36] = cells; details: Homo sapiens, MDA-MB-435, 48 h
Description: Cytotoxicity against human MDA-MB-435 cells after 48 hrs by sulforhodamine B assay

[37] = cells; details: Homo sapiens, M14, 48 h
Description: Cytotoxicity against human M14 cells after 48 hrs by sulforhodamine B assay

[38] = cells; details: Homo sapiens, Malme-3M, 48 h
Description: Cytotoxicity against human MALME-3M cells after 48 hrs by sulforhodamine B assay

[39] = cells; details: Homo sapiens, LOX IMVI, 48 h
Description: Cytotoxicity against human LOXIMVI cells after 48 hrs by sulforhodamine B assay

[40] = cells; details: Homo sapiens, U-251, 48 h
Description: Cytotoxicity against human U251 cells after 48 hrs by sulforhodamine B assay

[41] = cells; details: Homo sapiens, SNB-19, 48 h
Description: Cytotoxicity against human SNB19 cells after 48 hrs by sulforhodamine B assay

[42] = cells; details: Homo sapiens, SNB-75, 48 h
Description: Cytotoxicity against human SNB75 cells after 48 hrs by sulforhodamine B assay

[43] = cells; details: Homo sapiens, SF-539, 48 h
Description: Cytotoxicity against human SF539 cells after 48 hrs by sulforhodamine B assay

[44] = cells; details: Homo sapiens, SF-295, 48 h
Description: Cytotoxicity against human SF295 cells after 48 hrs by sulforhodamine B assay

[45] = cells; details: Homo sapiens, SF-268, 48 h
Description: Cytotoxicity against human SF268 cells after 48 hrs by sulforhodamine B assay

[46] = cells; details: Homo sapiens, SW-620, 48 h
Description: Cytotoxicity against human SW620 cells after 48 hrs by sulforhodamine B assay

[47] = cells; details: Homo sapiens, KM12, 48 h
Description: Cytotoxicity against human KM12 cells after 48 hrs by sulforhodamine B assay

[48] = cells; details: Homo sapiens, HT-29, 48 h
Description: Cytotoxicity against human HT-29 cells after 48 hrs by sulforhodamine B assay

[49] = cells; details: Homo sapiens, HCT-116, 48 h
Description: Cytotoxicity against human HCT116 cells after 48 hrs by sulforhodamine B assay

[50] = cells; details: Homo sapiens, HCT-15, 48 h
Description: Cytotoxicity against human HCT15 cells after 48 hrs by sulforhodamine B assay

[51] = cells; details: Homo sapiens, HCC 2998, 48 h
Description: Cytotoxicity against human HCC2998 cells after 48 hrs by sulforhodamine B assay

[52] = cells; details: Homo sapiens, COLO 205, 48 h
Description: Cytotoxicity against human COLO205 cells after 48 hrs by sulforhodamine B assay

[53] = cells; details: Homo sapiens, NCI-H522, 48 h
Description: Cytotoxicity against human NCI-H522 cells after 48 hrs by sulforhodamine B assay

[54] = cells; details: Homo sapiens, NCI-H460, 48 h
Description: Cytotoxicity against human NCI-H460 cells after 48 hrs by sulforhodamine B assay

[55] = cells; details: Homo sapiens, NCI-H23, 48 h
Description: Cytotoxicity against human NCI-H23 cells after 48 hrs by sulforhodamine B assay

[56] = cells; details: Homo sapiens, NCI-H226, 48 h
Description: Cytotoxicity against human NCI-H226 cells after 48 hrs by sulforhodamine B assay

[57] = cells; details: Homo sapiens, HOP-62, 48 h
Description: Cytotoxicity against human HOP62 cells after 48 hrs by sulforhodamine B assay

[58] = cells; details: Homo sapiens, HOP-92, 48 h
Description: Cytotoxicity against human HOP92 cells after 48 hrs by sulforhodamine B assay

[59] = cells; details: Homo sapiens, EKVX, 48 h
Description: Cytotoxicity against human EKVX cells after 48 hrs by sulforhodamine B assay

[60] = cells; details: Homo sapiens, RPMI-8226, 48 h
Description: Cytotoxicity against human RPMI8226 cells after 48 hrs by sulforhodamine B assay

[61] = cells; details: Homo sapiens, MOLT-4, 48 h
Description: Cytotoxicity against human MOLT4 cells after 48 hrs by sulforhodamine B assay

[62] = cells; details: Homo sapiens, K562, 48 h
Description: Cytotoxicity against human K562 cells after 48 hrs by sulforhodamine B assay

[63] = cells; details: Homo sapiens, CCRF-CEM, 48 h
Description: Cytotoxicity against human CCRF-CEM cells after 48 hrs by sulforhodamine B assay

[64] = cells; details: Homo sapiens, HL-60, 48 h
Description: Cytotoxicity against human HL-60(TB) cells after 48 hrs by sulforhodamine B assay

[65] = biological target: T1, Heat shock protein HSP90 (Homo sapiens) (UniProt P07900+P08238); assay: Inhibition of Hsp90 in human MCF7 cells assessed as proteasomal degradation of EGFR after 24 hrs by Western blot analysis; assay type: cell-based
[66] = biological target: T1, Heat shock protein HSP90 (Homo sapiens); assay: Inhibition of Hsp90 in human MCF7 cells assessed as proteasomal degradation of Her2 after 24 hrs by Western blot analysis; assay type: cell-based
[67] = biological target: T1, Heat shock protein HSP90 (Homo sapiens); assay: Inhibition of Hsp90 in human MCF7 cells assessed as proteasomal degradation of Akt after 24 hrs by Western blot analysis; assay type: cell-based
[68] = biological target: T1, Heat shock protein HSP90 (Homo sapiens); assay: Inhibition of Hsp90 in human MCF7 cells assessed as proteasomal degradation of Cdk4 after 24 hrs by Western blot analysis; assay type: cell-based
[69] = biological target: T1, Heat shock protein HSP90 (Homo sapiens); assay: Inhibition of HSP90 in human MCF7 cells assessed as increase in expression level of Hsp70 after 24 hrs by Western blot analysis; assay type: cell-based

## COc1c(C)cnc(Cn2cc(Cc3cccc(C(F)(F)F)c3)c3c(Cl)nc(N)nc32)c1C
[1]
  pIC50: 5.06

## COc1cc(Cc2cn(Cc3ncc(C)c(OC)c3C)c3nc(N)nc(Cl)c23)ccc1Br
[1]
  pIC50: 7.10

## Nc1nc(Cl)c2c(Cc3ccccc3)cn(Cc3cc4c(cc3Br)OCO4)c2n1
[2]
  inhibition at 72 h, 10 µM: 20.7%
[3]
  inhibition at 10 µM: 70.4%
[4]
  inhibition at 10 µM: 40.9%
[5]
  inhibition at 10 µM: 69.9%
[1]
  pIC50: 6.19

## C=CCNC1=C2C[C@@H](C)C[C@H](OC)[C@H](O)[C@@H](C)/C=C(\C)[C@H](OC(N)=O)[C@@H](OC)/C=C\C=C(/C)C(=O)NC(=CC1=O)C2=O [TANESPIMYCIN]
[2]
  inhibition at 72 h, 10 µM: 65.5%
[3]
  inhibition at 10 µM: 74.4%
[4]
  inhibition at 10 µM: 88.9%
[5]
  inhibition at 10 µM: 79.7%

## COc1ccc(Cc2cn(Cc3ncc(C)c(OC)c3C)c3nc(N)nc(Cl)c23)cc1
[2]
  inhibition at 72 h, 10 µM: 10.1%
[3]
  inhibition at 10 µM: 80.9%
[4]
  inhibition at 10 µM: 69.4%
[5]
  inhibition at 10 µM: 80.1%
[1]
  pIC50: 7.03

## COc1c(C)cnc(Cn2cc(Cc3cccc(C)c3)c3c(Cl)nc(N)nc32)c1C
[1]
  pIC50: 7.29

## COc1c(C)cnc(Cn2cnc3c(Cl)nc(N)nc32)c1C [BIIB021]
[2]
  inhibition at 72 h, 10 µM: 51.3%
[3]
  inhibition at 10 µM: 71.9%
[4]
  inhibition at 10 µM: 86.2%
[5]
  inhibition at 10 µM: 84.8%

## CC(C)NCCCn1c(Sc2cc3c(cc2I)OCO3)nc2c(N)ncnc21 [PU-H71]
[6]
  GI50: 83 nM
[3]
  inhibition at 10 µM: 78.4%
[4]
  inhibition at 10 µM: 65.3%
[5]
  inhibition at 10 µM: 70.5%
[7]
  GI50: 1290 nM
[8]
  GI50: 3630 nM
[9]
  GI50: 87 nM
[10]
  GI50: 60 nM
[11]
  GI50: 155 nM
[12]
  GI50: 1510 nM
[13]
  GI50: 479 nM
[14]
  GI50: 46 nM
[15]
  GI50: 48 nM
[16]
  GI50: 132 nM
[17]
  GI50: 324 nM
[18]
  GI50: 162 nM
[19]
  GI50: 174 nM
[20]
  GI50: 759 nM
[21]
  GI50: 525 nM
[22]
  GI50: 295 nM
[23]
  GI50: 437 nM
[24]
  GI50: 45 nM
[25]
  GI50: 513 nM
[26]
  GI50: 155 nM
[27]
  GI50: 3020 nM
[28]
  GI50: 33100 nM
[29]
  GI50: 589 nM
[30]
  GI50: 89 nM
[31]
  GI50: 372 nM
[32]
  GI50: 309 nM
[33]
  GI50: 417 nM
[34]
  GI50: 457 nM
[35]
  GI50: 355 nM
[36]
  GI50: 91 nM
[37]
  GI50: 234 nM
[38]
  GI50: 123 nM
[39]
  GI50: 79 nM
[40]
  GI50: 129 nM
[41]
  GI50: 646 nM
[42]
  GI50: 724 nM
[43]
  GI50: 851 nM
[44]
  GI50: 145 nM
[45]
  GI50: 2090 nM
[46]
  GI50: 59 nM
[47]
  GI50: 59 nM
[48]
  GI50: 38 nM
[49]
  GI50: 63 nM
[50]
  GI50: 437 nM
[51]
  GI50: 282 nM
[52]
  GI50: 48 nM
[53]
  GI50: 59 nM
[54]
  GI50: 58 nM
[55]
  GI50: 89 nM
[56]
  GI50: 759 nM
[57]
  GI50: 263 nM
[58]
  GI50: 288 nM
[59]
  GI50: 2510 nM
[60]
  GI50: 1510 nM
[61]
  GI50: 91 nM
[62]
  GI50: 71 nM
[63]
  GI50: 427 nM
[64]
  GI50: 63 nM

## Nc1nc(Cl)c2c(Cc3ccccc3)cn(Cc3cc4c(cc3I)OCO4)c2n1
[2]
  inhibition at 72 h, 10 µM: 36.2%
[3]
  inhibition at 10 µM: 74.5%
[4]
  inhibition at 10 µM: 63.8%
[5]
  inhibition at 10 µM: 74%
[1]
  pIC50: 6.12

## COc1c(C)cnc(Cn2cc(Cc3ccc(C)cc3)c3c(Cl)nc(N)nc32)c1C
[1]
  pIC50: 7.24

## Nc1nc(Cl)c2c(Cc3ccccc3)cn(Cc3ccc4c(c3)OCO4)c2n1
[2]
  inhibition at 72 h, 10 µM: 11.2%
[3]
  inhibition at 10 µM: 48.8%
[4]
  inhibition at 10 µM: 4.32%
[5]
  inhibition at 10 µM: 54%

## COc1c(C)cnc(Cn2cc(Cc3ccc(Cl)cc3)c3c(Cl)nc(N)nc32)c1C
[1]
  pIC50: 7.32

## COc1c(C)cnc(Cn2cc(Cc3ccccc3)c3c(Cl)nc(N)nc32)c1C
[1]
  pIC50: 7.44
[65]
  inhibition: Dose-dependent effect
[66]
  inhibition: Dose-dependent effect
[67]
  inhibition: Dose-dependent effect
[68]
  inhibition: Dose-dependent effect
[69]
  inhibition: Dose-dependent effect
